Measurements from ChEMBL document CHEMBL5260810, “Inhibition of bromodomain-containing protein 9 for the prevention of epigenetically-defined drug resistance” (Bioorg Med Chem Lett, 2017).

Columns and labels:
[1] = tested on: SW480; assay: Cytotoxicity against human SW480 cells measured after 8 days; assay type: functional, cell-based; details: SW480, 192 h
[2] = tested on: JeKo-1; assay: Cytotoxicity against human JeKo-1 cells measured after 8 days; assay type: functional, cell-based; details: JeKo-1, 192 h
[3] = target: L-type calcium channel, verapamil binding site (Rattus norvegicus, UniProt P22002+P27732+Q02485); assay: Displacement of [3H]D 888 from rat brain L-type calcium channel verapamil binding site at 10 uM after 120 mins by scintillation counting analysis relative to control; details: rat brain L-type calcium channel preparation, probe [3H]D 888, read-out: Activity
[4] = target: Tyrosine-protein kinase JAK1 (Homo sapiens) (UniProt P23458); assay: Inhibition of JAK1 (unknown origin) at 1 uM relative to control
[5] = species: Homo sapiens; assay: Displacement of [3H] Dofetilide from human potassium channel at 10 uM relative to control
[6] = Cytotoxicity against human MOLM16 cells measured after 8 days; assay type: functional, cell-based, MOLM-16; details: MOLM16, 192 h
[7] = tested on: YMB-1-E; assay: Cytotoxicity against human YMB-1-E cells measured after 8 days; assay type: functional, cell-based; details: 192 h
[8] = tested on: EB-3; assay: Cytotoxicity against human EB-3 cells measured after 8 days; assay type: functional, cell-based; details: EB-3, 192 h
[9] = tested on: GTL 16 cell line; assay: Cytotoxicity against human GTL 16 cell line measured after 8 days; assay type: functional, cell-based; details: GTL 16, 192 h
[10] = tested on: EVSA-T; assay: Cytotoxicity against human EVSA-T cells measured after 8 days; assay type: functional, cell-based; details: 192 h
[11] = Cytotoxicity against human NCI-H2810 cells measured after 8 days; assay type: functional, cell-based; details: NCI-H2810, 192 h
[12] = target: T1, Bromodomain-containing protein 1 (Homo sapiens, UniProt O95696); assay: Binding affinity to human partial length BRD1 (E556 to A688 residues) expressed in bacterial expression system by BROMOscan assay
T1 sequence (O95696 whole entry): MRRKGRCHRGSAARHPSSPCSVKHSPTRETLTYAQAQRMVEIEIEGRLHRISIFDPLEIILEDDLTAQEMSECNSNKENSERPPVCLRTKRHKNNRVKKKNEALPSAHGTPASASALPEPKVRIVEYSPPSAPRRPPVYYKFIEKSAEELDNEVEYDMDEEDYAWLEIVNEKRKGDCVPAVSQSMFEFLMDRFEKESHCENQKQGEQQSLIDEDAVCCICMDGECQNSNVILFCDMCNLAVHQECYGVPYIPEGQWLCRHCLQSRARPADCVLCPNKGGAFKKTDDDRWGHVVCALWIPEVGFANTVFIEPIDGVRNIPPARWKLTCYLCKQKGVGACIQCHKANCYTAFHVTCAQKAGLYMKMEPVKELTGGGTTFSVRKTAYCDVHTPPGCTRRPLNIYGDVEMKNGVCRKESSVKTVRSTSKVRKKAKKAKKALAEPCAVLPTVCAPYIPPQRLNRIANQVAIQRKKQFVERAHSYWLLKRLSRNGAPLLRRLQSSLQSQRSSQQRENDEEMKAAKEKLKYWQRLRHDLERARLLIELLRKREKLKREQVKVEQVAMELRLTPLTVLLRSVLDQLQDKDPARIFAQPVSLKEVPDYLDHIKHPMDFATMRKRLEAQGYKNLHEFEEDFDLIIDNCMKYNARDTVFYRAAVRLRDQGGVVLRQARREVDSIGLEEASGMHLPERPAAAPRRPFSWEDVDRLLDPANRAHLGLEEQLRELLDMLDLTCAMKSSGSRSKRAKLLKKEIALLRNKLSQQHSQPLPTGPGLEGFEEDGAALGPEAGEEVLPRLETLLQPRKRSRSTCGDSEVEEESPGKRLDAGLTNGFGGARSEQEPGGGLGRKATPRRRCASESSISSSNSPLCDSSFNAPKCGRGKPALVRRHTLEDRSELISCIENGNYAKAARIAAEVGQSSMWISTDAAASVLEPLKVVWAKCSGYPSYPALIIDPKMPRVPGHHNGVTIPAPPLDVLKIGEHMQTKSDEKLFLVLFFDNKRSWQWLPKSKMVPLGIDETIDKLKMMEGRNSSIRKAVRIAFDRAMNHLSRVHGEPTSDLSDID

[13] = target: T2, Myosin light chain kinase (Homo sapiens) (UniProt Q32MK0); assay: Inhibition of MYLK3 (unknown origin) at 1 uM relative to control
T2 sequence (whole entry): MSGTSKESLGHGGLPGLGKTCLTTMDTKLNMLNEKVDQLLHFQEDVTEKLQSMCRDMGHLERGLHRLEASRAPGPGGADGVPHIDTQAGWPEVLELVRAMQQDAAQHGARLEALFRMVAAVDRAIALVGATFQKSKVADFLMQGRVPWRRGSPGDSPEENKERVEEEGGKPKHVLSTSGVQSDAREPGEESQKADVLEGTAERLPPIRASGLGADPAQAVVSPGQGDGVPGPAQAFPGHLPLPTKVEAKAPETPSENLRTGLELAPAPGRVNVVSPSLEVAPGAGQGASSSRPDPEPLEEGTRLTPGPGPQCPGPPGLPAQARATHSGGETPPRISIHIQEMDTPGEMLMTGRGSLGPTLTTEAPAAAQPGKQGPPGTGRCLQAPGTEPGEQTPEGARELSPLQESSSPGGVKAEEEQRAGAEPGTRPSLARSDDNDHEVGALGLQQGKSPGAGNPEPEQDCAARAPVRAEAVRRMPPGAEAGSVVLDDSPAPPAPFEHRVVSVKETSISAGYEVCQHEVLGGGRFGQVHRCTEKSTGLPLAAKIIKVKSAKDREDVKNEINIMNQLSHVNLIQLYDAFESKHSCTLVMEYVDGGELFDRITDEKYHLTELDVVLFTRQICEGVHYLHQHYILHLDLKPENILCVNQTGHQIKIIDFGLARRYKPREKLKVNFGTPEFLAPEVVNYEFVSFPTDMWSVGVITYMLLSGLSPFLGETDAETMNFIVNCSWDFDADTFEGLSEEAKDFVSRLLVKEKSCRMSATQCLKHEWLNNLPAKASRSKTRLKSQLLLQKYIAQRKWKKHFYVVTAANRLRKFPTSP

[14] = Cytotoxicity against human HCC461 cells measured after 8 days; assay type: functional, cell-based; details: HCC461, 192 h
[15] = target: Mu-type opioid receptor (Homo sapiens) (UniProt P35372); assay: Displacement of [3H]DAMGO from human recombinant mu receptor at 10 uM after 120 mins by scintillation counting analysis relative to control
[16] = tested on: LS-1034; assay: Cytotoxicity against human LS1034 cells measured after 8 days; assay type: functional, cell-based; details: LS-1034, 192 h
[17] = target: Bromodomain-containing protein 3 (Homo sapiens, UniProt Q15059); assay: Binding affinity to human partial length BRD3 bromodomain 1 (P24 to E144 residues) expressed in bacterial expression system by BROMOscan assay
[18] = target: Receptor-interacting serine/threonine-protein kinase 2 (Homo sapiens) (UniProt O43353); assay: Inhibition of RIPK2 (unknown origin) at 1 uM relative to control
[19] = tested on: NCI-H292; assay: Cytotoxicity against human NCI-H292 cells measured after 8 days; assay type: functional, cell-based; details: NCI-H292, 192 h
[20] = tested on: RERF-LC-MS; assay: Cytotoxicity against human RERF-LC-MS cells measured after 8 days; assay type: functional, cell-based; details: 192 h

Sequence of Tyrosine-protein kinase JAK1 (Homo sapiens) (P23458 whole entry): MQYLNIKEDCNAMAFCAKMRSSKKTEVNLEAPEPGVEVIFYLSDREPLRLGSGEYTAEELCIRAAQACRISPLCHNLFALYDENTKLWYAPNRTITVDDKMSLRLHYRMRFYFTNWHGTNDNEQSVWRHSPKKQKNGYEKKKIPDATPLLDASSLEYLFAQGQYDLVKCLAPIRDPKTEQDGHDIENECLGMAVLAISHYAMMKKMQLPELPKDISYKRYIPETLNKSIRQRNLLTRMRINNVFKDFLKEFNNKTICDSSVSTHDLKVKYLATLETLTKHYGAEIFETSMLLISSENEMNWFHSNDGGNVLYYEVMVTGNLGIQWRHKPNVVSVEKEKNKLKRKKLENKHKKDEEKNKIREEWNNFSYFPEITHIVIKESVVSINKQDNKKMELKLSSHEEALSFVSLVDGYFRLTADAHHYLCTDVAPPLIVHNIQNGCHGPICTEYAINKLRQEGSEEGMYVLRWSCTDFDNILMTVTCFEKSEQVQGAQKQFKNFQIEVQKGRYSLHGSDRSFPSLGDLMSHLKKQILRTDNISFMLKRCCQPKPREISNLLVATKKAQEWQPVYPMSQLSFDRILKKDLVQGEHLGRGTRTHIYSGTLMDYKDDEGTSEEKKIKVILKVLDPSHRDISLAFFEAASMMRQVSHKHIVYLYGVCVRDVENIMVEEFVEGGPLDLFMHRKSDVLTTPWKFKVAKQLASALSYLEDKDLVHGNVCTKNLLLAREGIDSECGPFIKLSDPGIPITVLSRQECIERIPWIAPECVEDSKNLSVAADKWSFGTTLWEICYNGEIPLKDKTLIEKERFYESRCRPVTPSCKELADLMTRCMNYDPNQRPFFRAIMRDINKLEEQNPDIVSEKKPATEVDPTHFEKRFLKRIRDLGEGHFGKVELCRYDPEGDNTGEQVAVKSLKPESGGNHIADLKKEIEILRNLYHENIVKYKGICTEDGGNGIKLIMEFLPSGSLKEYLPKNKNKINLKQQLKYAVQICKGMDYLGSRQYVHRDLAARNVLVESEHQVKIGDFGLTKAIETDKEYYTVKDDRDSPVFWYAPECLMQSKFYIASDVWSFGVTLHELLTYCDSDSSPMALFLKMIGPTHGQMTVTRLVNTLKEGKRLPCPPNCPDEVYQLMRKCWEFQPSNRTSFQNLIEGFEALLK
Sequence of Mu-type opioid receptor (Homo sapiens) (P35372 whole entry): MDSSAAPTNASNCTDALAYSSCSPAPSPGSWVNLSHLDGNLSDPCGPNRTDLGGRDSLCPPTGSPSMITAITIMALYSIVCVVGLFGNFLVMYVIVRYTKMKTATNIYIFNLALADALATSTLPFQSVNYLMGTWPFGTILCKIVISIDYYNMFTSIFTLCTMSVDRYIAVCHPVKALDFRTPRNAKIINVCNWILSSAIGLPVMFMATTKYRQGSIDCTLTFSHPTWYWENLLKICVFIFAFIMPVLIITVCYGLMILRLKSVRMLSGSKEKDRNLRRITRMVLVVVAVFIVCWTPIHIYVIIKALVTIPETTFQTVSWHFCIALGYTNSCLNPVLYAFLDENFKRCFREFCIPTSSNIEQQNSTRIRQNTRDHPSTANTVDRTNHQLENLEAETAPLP
Sequence of Receptor-interacting serine/threonine-protein kinase 2 (Homo sapiens) (O43353 whole entry): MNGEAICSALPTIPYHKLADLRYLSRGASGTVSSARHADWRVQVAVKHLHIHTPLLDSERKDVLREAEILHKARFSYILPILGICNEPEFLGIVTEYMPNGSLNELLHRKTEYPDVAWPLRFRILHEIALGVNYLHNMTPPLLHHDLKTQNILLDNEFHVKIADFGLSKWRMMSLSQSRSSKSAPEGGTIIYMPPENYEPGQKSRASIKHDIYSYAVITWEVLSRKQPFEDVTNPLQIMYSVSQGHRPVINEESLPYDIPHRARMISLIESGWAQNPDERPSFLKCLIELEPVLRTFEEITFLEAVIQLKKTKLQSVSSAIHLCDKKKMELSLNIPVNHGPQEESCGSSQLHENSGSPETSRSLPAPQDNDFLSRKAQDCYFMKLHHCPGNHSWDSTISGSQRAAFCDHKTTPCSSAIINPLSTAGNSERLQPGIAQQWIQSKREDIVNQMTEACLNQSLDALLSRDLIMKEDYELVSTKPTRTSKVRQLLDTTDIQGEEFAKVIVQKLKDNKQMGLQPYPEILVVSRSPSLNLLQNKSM
Sequence of Bromodomain-containing protein 3 (Q15059 whole entry, the tested form may be a part): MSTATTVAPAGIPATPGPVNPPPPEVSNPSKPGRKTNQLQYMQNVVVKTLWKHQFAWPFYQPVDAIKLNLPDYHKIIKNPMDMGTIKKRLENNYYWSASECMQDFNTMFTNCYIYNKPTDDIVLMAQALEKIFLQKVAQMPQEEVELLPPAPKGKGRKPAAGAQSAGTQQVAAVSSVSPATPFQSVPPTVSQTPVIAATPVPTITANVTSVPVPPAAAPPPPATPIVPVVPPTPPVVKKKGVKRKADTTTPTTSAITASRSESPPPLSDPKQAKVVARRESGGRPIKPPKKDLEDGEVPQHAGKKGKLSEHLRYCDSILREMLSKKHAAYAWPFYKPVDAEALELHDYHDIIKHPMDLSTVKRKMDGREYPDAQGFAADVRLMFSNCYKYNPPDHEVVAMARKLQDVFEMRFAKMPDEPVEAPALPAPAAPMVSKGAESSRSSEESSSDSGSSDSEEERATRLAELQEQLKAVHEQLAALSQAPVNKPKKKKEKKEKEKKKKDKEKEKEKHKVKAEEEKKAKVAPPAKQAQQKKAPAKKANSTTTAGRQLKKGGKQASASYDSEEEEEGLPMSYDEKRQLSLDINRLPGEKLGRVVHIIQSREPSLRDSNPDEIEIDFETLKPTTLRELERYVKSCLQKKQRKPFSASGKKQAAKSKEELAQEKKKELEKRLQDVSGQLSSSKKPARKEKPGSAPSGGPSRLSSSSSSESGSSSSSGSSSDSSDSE

Row | SMILES | IC50 [1] | IC50 [2] | inhibition at 2 h, 10 µM [3] | inhibition [4] | Activity [5] | IC50 [6] | IC50 [7] | IC50 [8] | IC50 [9] | IC50 [10] | IC50 [11] | Kd [12] | inhibition [13] | IC50 [14] | Activity [15] | IC50 [16] | Kd [17] | inhibition [18] | IC50 [19] | IC50 [20]
1 | C/C=C/Cn1cc(-c2cc(OC)c(C(=O)N3CCOCC3)cc2OC)c2cc(C)[nH]c2c1=O | 2 µM | 2 µM | 3% | -4.5% | 18% | 2 µM | 2 µM | 2 µM | 2 µM | 2 µM | 2 µM | > 10 µM | 5% | 2 µM | 9% | 2 µM | > 10 µM | -1.5% | 2 µM | 2 µM
2 | C/C=C/Cn1cc(-c2ccc(C(C)(C)O)cc2OC)c2cc[nH]c2c1=O | 20 µM | 10.8 µM | -3% | -2.5% | -5% | 17.8 µM | 20 µM | 20 µM | 20 µM | 20 µM | 20 µM | > 10 µM | 2% | 20 µM | 10% | 20 µM | 3.2 µM | -0.5% | 20 µM | 20 µM
3 | C/C=C/Cn1cc(-c2ccc(C(=O)N3CCOCC3)cc2)c2cc[nH]c2c1=O | 20 µM | 9.95 µM | 7% | -3.9% | 13% | 9.59 µM | 20 µM | 20 µM | 20 µM | 20 µM | 20 µM | > 10 µM | 1.4% | 20 µM | 5% | 20 µM | 6.3 µM | -4.6% | 20 µM | 20 µM
4 | C/C=C/Cn1cc(-c2cc(OC)c(C(C)(C)O)cc2OC)c2cc(C)[nH]c2c1=O |  |  |  |  |  |  |  |  |  |  |  | > 10 µM |  |  |  |  | 9.2 µM |  |  | 
